In brackets after ≈: the same amount, converted by molar mass.
What was measured:
Type in all cases: functional
[1] = system: Escherichia coli; assay: Antibacterial activity against Escherichia coli at 2 mg/ml by agar diffusion method; conditions: read-out: DIZ
[2] = system: Escherichia coli; assay: Antibacterial activity against Escherichia coli by twofold serial broth dilution method
[3] = system: Bacillus thuringiensis; assay: Antibacterial activity against Bacillus thuringiensis at 2 mg/ml by agar diffusion method; conditions: read-out: DIZ
[4] = system: Bacillus thuringiensis; assay: Antibacterial activity against Bacillus thuringiensis by twofold serial broth dilution method

Structure (SMILES) | zone of inhibition at 2000 µg/mL [1] | MIC [2] | zone of inhibition at 2000 µg/mL [3] | MIC [4]
O=C1CSC(N2NC(=O)C3C4c5ccccc5C(c5ccccc54)C3C2=O)=N1 (stereo unspecified) | 26 mm | 12.5 µg/mL (≈ 32.1 µM) | 24 mm | 12.5 µg/mL (≈ 32.1 µM)
Cc1csc(N2NC(=O)C3C4c5ccccc5C(c5ccccc54)C3C2=O)n1 (stereo unspecified) | 16 mm | 50 µg/mL (≈ 129 µM) | 40 mm | 6 µg/mL (≈ 15.5 µM)
N#C/C(C(=O)N1NC(=O)C2C3c4ccccc4C(c4ccccc43)C2C1=O)=c1\sc(=O)c(=C2C(=O)c3ccccc3C2=O)n1-c1ccccc1 (stereo unspecified) | 25 mm | 12.5 µg/mL (≈ 18.5 µM) | 19 mm | 50 µg/mL (≈ 74.1 µM)
COc1ccc(/C=c2\c(=O)s/c(=C(\C#N)C(=O)N3NC(=O)C4C5c6ccccc6C(c6ccccc65)C4C3=O)n2-c2ccccc2)cc1 (stereo unspecified) | 13 mm |  | 11 mm | 
O=C1NN(c2nc(-c3ccccc3)cs2)C(=O)C2C3c4ccccc4C(c4ccccc43)C12 (stereo unspecified) | 15 mm | 50 µg/mL (≈ 111 µM) | 23 mm | 12.5 µg/mL (≈ 27.8 µM)
N#C/C(C(=O)N1NC(=O)C2C3c4ccccc4C(c4ccccc43)C2C1=O)=C1/Nc2ccccc2S1 (stereo unspecified) | 26 mm | 12.5 µg/mL (≈ 25.5 µM) | 30 mm | 6 µg/mL (≈ 12.2 µM)
O=C(N[C@H](CO)[C@H](O)c1ccc([N+](=O)[O-])cc1)C(Cl)Cl [CHLORAMPHENICOL] | 19 mm | 12.5 µg/mL (≈ 38.7 µM) | 23 mm | 12.5 µg/mL (≈ 38.7 µM)
N#C/C(C(=O)N1NC(=O)C2C3c4ccccc4C(c4ccccc43)C2C1=O)=C1\SCCN1c1ccccc1 (stereo unspecified) | 15 mm | 50 µg/mL (≈ 96.4 µM) | 22 mm | 12.5 µg/mL (≈ 24.1 µM)
N#C/C(C(=O)N1NC(=O)C2C3c4ccccc4C(c4ccccc43)C2C1=O)=C1\SCC(=O)N1c1ccccc1 (stereo unspecified) | 26 mm | 12.5 µg/mL (≈ 23.5 µM) | 24 mm | 12.5 µg/mL (≈ 23.5 µM)
O=C1NN(c2nc(-c3ccccc3)c(Br)s2)C(=O)C2C3c4ccccc4C(c4ccccc43)C12 (stereo unspecified) | 12 mm |  |  | 
CC1=CS/C(=C(\C#N)C(=O)N2NC(=O)C3C4c5ccccc5C(c5ccccc54)C3C2=O)N1c1ccccc1 (stereo unspecified) | 30 mm | 12.5 µg/mL (≈ 23.6 µM) | 28 mm | 12.5 µg/mL (≈ 23.6 µM)
N#C/C(C(=O)N1NC(=O)C2C3c4ccccc4C(c4ccccc43)C2C1=O)=C1\SC(=O)CN1c1ccccc1 (stereo unspecified) | 18 mm |  | 17 mm | 
N#C/C(C(=O)N1NC(=O)C2C3c4ccccc4C(c4ccccc43)C2C1=O)=C(\S)Nc1ccccc1 (stereo unspecified) | 22 mm | 12.5 µg/mL (≈ 25.4 µM) | 22 mm | 12.5 µg/mL (≈ 25.4 µM)
Nc1c(C(=O)c2ccccc2)sc(Nc2ccccc2)c1C(=O)N1NC(=O)C2C3c4ccccc4C(c4ccccc43)C2C1=O (stereo unspecified) | 20 mm | 12.5 µg/mL (≈ 20.5 µM) | 17 mm | 50 µg/mL (≈ 81.9 µM)
N#C/C(C(=O)N1NC(=O)C2C3c4ccccc4C(c4ccccc43)C2C1=O)=C1\SC=C(c2ccccc2)N1c1ccccc1 (stereo unspecified) | 40 mm | 6 µg/mL (≈ 10.1 µM) | 39 mm | 6 µg/mL (≈ 10.1 µM)
N#C/C(C(=O)N1NC(=O)C2C3c4ccccc4C(c4ccccc43)C2C1=O)=c1\sc(=O)/c(=C2\C(=O)Nc3ccccc32)n1-c1ccccc1 (stereo unspecified) | 15 mm |  | 15 mm | 
N#Cc1sc(Nc2ccccc2)c(C(=O)N2NC(=O)C3C4c5ccccc5C(c5ccccc54)C3C2=O)c1N (stereo unspecified) | 20 mm | 12.5 µg/mL (≈ 23.5 µM) |  | 
N#C/C(C(=O)N1NC(=O)C2C3c4ccccc4C(c4ccccc43)C2C1=O)=C1\SCCCN1c1ccccc1 (stereo unspecified) | 25 mm | 12.5 µg/mL (≈ 23.5 µM) | 19 mm | 50 µg/mL (≈ 93.9 µM)
CC(=O)c1sc(Nc2ccccc2)c(C(=O)N2NC(=O)C3C4c5ccccc5C(c5ccccc54)C3C2=O)c1N (stereo unspecified) | 13 mm |  | 15 mm | 
CN(C)/C=N/N1C(=O)C2C3c4ccccc4C(c4ccccc43)C2C1=O (stereo unspecified) | 21 mm | 12.5 µg/mL (≈ 36.2 µM) | 20 mm | 50 µg/mL (≈ 145 µM)
CC1(C)S[C@@H]2[C@H](NC(=O)[C@H](N)c3ccccc3)C(=O)N2[C@H]1C(=O)O [AMPICILLIN] | 19 mm | 12.5 µg/mL (≈ 35.8 µM) | 18 mm | 12.5 µg/mL (≈ 35.8 µM)
